# Source: patent publication US8999981B2, “3-amido-pyrrolo[3,4-C]pyrazole-5(1H, 4H,6H) carbaldehyde derivatives” (Pfizer Inc., priority 2007, dated 2015)
# Molecular target: Protein Kinase C beta 2 (PKCβII) (Homo sapiens (Human), UniProt P05771)
# Assay: PKCβII coupled PK/LDH spectrophotometric kinase assay
# Assay type: biochemical
# Conditions: apparent Ki, ATP-competitive model (Morrison equation); 0.1 mM ATP, 30° C.; read-out: PKCb Ki
# Protein Kinase C beta 2 (PKCβII), sequence (P05771 other isoform, or with tags, fused parts or gaps): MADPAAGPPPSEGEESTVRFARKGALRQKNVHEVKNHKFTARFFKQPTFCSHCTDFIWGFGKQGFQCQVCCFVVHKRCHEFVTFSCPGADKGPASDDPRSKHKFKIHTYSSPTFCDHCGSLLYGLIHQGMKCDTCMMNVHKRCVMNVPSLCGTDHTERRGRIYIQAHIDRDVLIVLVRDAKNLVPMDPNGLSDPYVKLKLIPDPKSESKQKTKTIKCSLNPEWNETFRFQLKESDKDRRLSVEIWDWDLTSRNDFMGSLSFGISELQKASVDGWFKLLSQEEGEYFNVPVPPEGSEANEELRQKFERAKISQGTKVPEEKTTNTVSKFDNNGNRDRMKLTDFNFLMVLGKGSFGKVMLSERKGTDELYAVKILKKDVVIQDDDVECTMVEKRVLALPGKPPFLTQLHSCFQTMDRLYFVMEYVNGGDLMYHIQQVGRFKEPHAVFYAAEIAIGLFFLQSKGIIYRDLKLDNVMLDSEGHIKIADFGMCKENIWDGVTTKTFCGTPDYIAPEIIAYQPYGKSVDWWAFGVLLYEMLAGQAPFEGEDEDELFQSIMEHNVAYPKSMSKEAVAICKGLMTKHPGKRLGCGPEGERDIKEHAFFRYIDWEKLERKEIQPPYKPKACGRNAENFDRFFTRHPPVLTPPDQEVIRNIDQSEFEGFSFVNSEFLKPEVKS
row,Structure (SMILES),Ki [nM]
1,COCCCN1C[C@H](C)N(C(=O)N2Cc3c(NC(=O)c4ocnc4C)n[nH]c3C2(C)C)C[C@H]1C [Example F8],95.6
2,C[C@@H]1CN(C(=O)N2Cc3c(NC(=O)c4cn(C)cn4)n[nH]c3C2(C)C)[C@@H](C)CN1CC1CCOCC1 [Example F9],62.4
3,Cc1nc(C)c(C(=O)Nc2n[nH]c3c2CN(C(=O)N2C[C@@H](C)N(CC4CCOCC4)C[C@@H]2C)C3(C)C)s1 [Example F10],22.6
4,C[C@@H]1CN(C(=O)N2Cc3c(NC(=O)c4cc(C5CC5)on4)n[nH]c3C2(C)C)[C@@H](C)CN1CC1CCOCC1 [Example F11],29.8
5,Cc1cc(C(=O)Nc2n[nH]c3c2CN(C(=O)N2C[C@@H](C)N(CC4CCOCC4)C[C@@H]2C)C3(C)C)n(C)n1 [Example F12],33
6,Cc1cc(C(=O)Nc2n[nH]c3c2CN(C(=O)N2C[C@@H](C)N(CC4CCOCC4)C[C@@H]2C)C3(C)C)no1 [Example F13],41.1
7,CCn1nc(C)cc1C(=O)Nc1n[nH]c2c1CN(C(=O)N1C[C@@H](C)N(CC3CCOCC3)C[C@@H]1C)C2(C)C [Example F14],20
8,CCc1ocnc1C(=O)Nc1n[nH]c2c1CN(C(=O)N1C[C@@H](C)N(CC3CCOCC3)C[C@@H]1C)C2(C)C [Example F15],52.1
9,C[C@@H]1CN(C(=O)N2Cc3c(NC(=O)c4ccn(C)n4)n[nH]c3C2(C)C)[C@@H](C)CN1CC1CCOCC1 [Example F16],25.8
10,C[C@@H]1CN(C(=O)N2Cc3c(NC(=O)c4cc(C5CC5)n[nH]4)n[nH]c3C2(C)C)[C@@H](C)CN1CC1CCOCC1 [Example F17],19.4
11,CCc1cc(C(=O)Nc2n[nH]c3c2CN(C(=O)N2C[C@@H](C)N(CC4CCOCC4)C[C@@H]2C)C3(C)C)on1 [Example F18],32.1
12,CCc1cc(C(=O)Nc2n[nH]c3c2CN(C(=O)N2C[C@@H](C)N(CC4CCOCC4)C[C@@H]2C)C3(C)C)no1 [Example F19],26.5
13,Cc1nc(C)c(C(=O)Nc2n[nH]c3c2CN(C(=O)N2C[C@@H](C)N(CC4CCOCC4)C[C@@H]2C)C3(C)C)o1 [Example F20],19.7
14,Cc1cc(C(=O)Nc2n[nH]c3c2CN(C(=O)N2C[C@@H](C)N(CC4CCOCC4)C[C@@H]2C)C3(C)C)on1 [Example F21],38.1
15,Cc1nonc1C(=O)Nc1n[nH]c2c1CN(C(=O)N1C[C@@H](C)N(CC3CCOCC3)C[C@@H]1C)C2(C)C [Example F22],47.3
16,Cc1nc(C(=O)Nc2n[nH]c3c2CN(C(=O)N2C[C@@H](C)N(CC4CCOCC4)C[C@@H]2C)C3(C)C)c(C)o1 [Example F23],31.3
17,CCCc1cc(C(=O)Nc2n[nH]c3c2CN(C(=O)N2C[C@@H](C)N(CC4CCOCC4)C[C@@H]2C)C3(C)C)no1 [Example F24],59.4
18,CCc1nc(C(=O)Nc2n[nH]c3c2CN(C(=O)N2C[C@@H](C)N(CC4CCOCC4)C[C@@H]2C)C3(C)C)cs1 [Example F25],33.3
19,CCc1ccc(C(=O)Nc2n[nH]c3c2CN(C(=O)N2C[C@@H](C)N(C4CCOCC4)C[C@@H]2C)C3(C)C)nc1 [Example F51],< 10
20,C[C@@H]1CN(C(=O)N2Cc3c(NC(=O)c4ccc(N5CCOCC5)cn4)n[nH]c3C2(C)C)[C@@H](C)CN1C1CCOCC1 [Example F52],< 10
21,C[C@@H]1CN(C(=O)N2Cc3c(NC(=O)c4ccncn4)n[nH]c3C2(C)C)[C@@H](C)CN1C1CCOCC1 [Example F53],24
22,Cc1ccc(C(=O)Nc2n[nH]c3c2CN(C(=O)N2C[C@@H](C)N(C4CCOCC4)C[C@@H]2C)C3(C)C)nc1 [Example F54],12.2
23,COc1ccc(C(=O)Nc2n[nH]c3c2CN(C(=O)N2C[C@@H](C)N(C4CCOCC4)C[C@@H]2C)C3(C)C)nc1 [Example F55],< 10
24,C[C@@H]1CN(C(=O)N2Cc3c(NC(=O)c4ccc(Cl)cn4)n[nH]c3C2(C)C)[C@@H](C)CN1C1CCOCC1 [Example F56],< 10
25,C[C@@H]1CN(C(=O)N2Cc3c(NC(=O)c4cnccn4)n[nH]c3C2(C)C)[C@@H](C)CN1CC1CCOCC1 [Example F57],52.7
26,C[C@@H]1CN(C(=O)N2Cc3c(NC(=O)c4ncccn4)n[nH]c3C2(C)C)[C@@H](C)CN1CC1CCOCC1 [Example F58],133
